In patent US7875647B2, “Heteroaryl-pyrazole derivatives as cannabinoid CB1 receptor antagonists” (Green Cross Corporation, priority 2006, dated 2011):
Like-named read-outs stand apart in the source and are kept apart here.

Molecular target: T1, Cannabinoid-1 receptor (CB1R) (Rattus norvegicus, UniProt P20272)
T1 construct: The tissue obtained from the brain of SD rats was homogenized; from tissue; host or cells: brain of SD rats (membrane pellet of the homogenate)
Experiment: Cannabinoid-1 receptor (CB1R) binding affinity assay ([3H]CP-55940, rat CB-1 receptor binding protocol)
Details: brain tissue of SD rats, [3H]CP-55940, 30° C. 60 min

T1 sequence (P20272 whole entry): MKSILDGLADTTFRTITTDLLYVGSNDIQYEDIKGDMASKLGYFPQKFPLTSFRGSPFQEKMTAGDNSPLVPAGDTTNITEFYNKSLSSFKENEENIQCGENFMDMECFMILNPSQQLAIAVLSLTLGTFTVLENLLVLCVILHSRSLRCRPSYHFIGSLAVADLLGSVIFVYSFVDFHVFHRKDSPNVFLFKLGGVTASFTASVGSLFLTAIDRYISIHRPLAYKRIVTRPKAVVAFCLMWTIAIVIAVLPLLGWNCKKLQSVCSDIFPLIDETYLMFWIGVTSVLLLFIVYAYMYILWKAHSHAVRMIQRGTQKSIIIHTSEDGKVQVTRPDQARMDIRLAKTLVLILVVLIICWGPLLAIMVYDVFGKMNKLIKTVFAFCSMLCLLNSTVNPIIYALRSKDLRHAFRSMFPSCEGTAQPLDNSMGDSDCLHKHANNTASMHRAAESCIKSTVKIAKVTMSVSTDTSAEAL

| IC50 (read-out: IC50) [nM] | SMILES | IC50 (IC50(nM)) [nM] |
| --- | --- | --- |
| 17.3 | C=CCOC(C)(C)c1nnc(-c2nn(-c3ccc(Cl)cc3Cl)c(-c3ccc(Cl)cc3)c2C)o1 [Example 237, 2-(2-(allyloxy)propan-2-yl)-5-(5-(4-chlorophenyl)-1-(2,4-dichlorophenyl)-4-methyl-1H-pyrazol-3-yl)-1,3,4-oxadiazole] |  |
| 18.4 | C=CCOC(C)(C)c1nnc(-c2nn(-c3ccc(Cl)cc3Cl)c(-c3ccc(Br)cc3)c2CC)o1 [Example 238, 2-(2-(allyloxy)propan-2-yl)-5-(5-(4-bromophenyl)-1-(2,4-dichlorophenyl)-4-ethyl-1H-pyrazol-3-yl)-1,3,4-oxadiazole] |  |
| 4.48 | C=CCOC(C)(C)c1nnc(-c2nn(-c3ccc(Cl)cc3Cl)c(-c3ccc(Cl)cc3)c2CC)o1 [Example 239, 2-(2-(allyloxy)propan-2-yl)-5-(5-(4-chlorophenyl)-1-(2,4-dichlorophenyl)-4-ethyl-1H-pyrazol-3-yl)-1,3,4-oxadiazole] |  |
| 13.7 | CCc1c(-c2nnc(C(C)(C)OCCCO)o2)nn(-c2ccc(Cl)cc2Cl)c1-c1ccc(Br)cc1 [Example 240, 3-(2-(5-(5-(4-bromophenyl)-1-(2,4-dichlorophenyl)-4-ethyl-1H-pyrazol-3-yl)-1,3,4-oxadiazol-2-yl)propan-2-yloxy)propan-1-ol] |  |
| 73.4 | CCCCC(O)c1nnc(-c2nn(-c3ccc(Cl)cc3Cl)c(-c3ccc(Cl)cc3)c2C)o1 (stereo not shown) [Example 241, 1-(5-(5-(4-chlorophenyl)-1-(2,4-dichlorophenyl)-4-methyl-1H-pyrazol-3-yl)-1,3,4-oxadiazol-2-yl)pentan-1-ol] |  |
| 67.3 | Cc1c(-c2nnc([C@H]3C[C@H]3C(=O)N3CCCCC3)o2)nn(-c2ccc(Cl)cc2Cl)c1-c1ccc(Cl)cc1 [Example 242, ((1R,2S)-2-(5-(5-(4-chlorophenyl)-1-(2,4-dichlorophenyl)-4-methyl-1H-pyrazol-3-yl)-1,3,4-oxadiazol-2-yl)cyclopropyl)(piperidin-1-yl)methanone] |  |
|  | CCCCOC(C)(C)c1nnc(-c2nn(-c3ccc(Cl)cc3Cl)c(-c3ccc(Cl)cc3)c2C)o1 [Example 243, 2-(2-butoxypropan-2-yl)-5-(5-(4-chlorophenyl)-1-(2,4-dichlorophenyl)-4-methyl-1H-pyrazol-3-yl)-1,3,4-oxadiazole] | 9.78 |
|  | CCCCCOC(C)(C)c1nnc(-c2nn(-c3ccc(Cl)cc3Cl)c(-c3ccc(Cl)cc3)c2C)o1 [Example 244, 2-(5-(4-chlorophenyl)-1-(2,4-dichlorophenyl)-4-methyl-1H-pyrazol-3-yl)-5-(2-(pentyloxy)propan-2-yl)-1,3,4-oxadiazole] | 15.1 |
| 9.41 | Cc1c(-c2nnc(C(C)(C)OCc3ccccc3)o2)nn(-c2ccc(Cl)cc2Cl)c1-c1ccc(Cl)cc1 [Example 245, 2-(2-(benzyloxy)propan-2-yl)-5-(5-(4-chlorophenyl)-1-(2,4-dichlorophenyl)-4-methyl-1H-pyrazol-3-yl)-1,3,4-oxadiazole] |  |
| 25.1 | Cc1c(-c2nnc(C(C)(C)OCc3ccccc3F)o2)nn(-c2ccc(Cl)cc2Cl)c1-c1ccc(Cl)cc1 [Example 248, 2-(5-(4-Chlorophenyl)-1-(2,4-dichlorophenyl)-4-methyl-1H-pyrazol-3-yl)-5-(2-(2-fluorobenzyloxy)propan-2-yl)-1,3,4-oxadiazole] |  |
|  | Cc1c(-c2nnc(C(C)(C)OCc3cccc(Cl)c3)o2)nn(-c2ccc(Cl)cc2Cl)c1-c1ccc(Cl)cc1 [Example 249, 2-(2-(3-Chlorobenzyloxy)propan-2-yl)-5-(5-(4-chlorophenyl)-1-(2,4-dichlorophenyl)-4-methyl-1H-pyrazol-3-yl)-1,3,4-oxadiazole] | 11.1 |
| 12.8 | COC(c1ccccc1)(c1nnc(-c2nn(-c3ccc(Cl)cc3Cl)c(-c3ccc(Cl)cc3)c2C)o1)C(F)(F)F (stereo not shown) [Example 251, 2-(5-(4-chlorophenyl)-1-(2,4-dichlorophenyl)-4-methyl-1H-pyrazol-3-yl)-5-(2,2,2-trifluoro-1-methoxy-1-phenylethyl)-1,3,4-oxadiazole] |  |
| 54.5 | CC(=O)OCC(C)(C)c1nnc(-c2nn(-c3ccc(Cl)cc3Cl)c(-c3ccc(Cl)cc3)c2C)o1 [Example 252, 2-(5-(5-(4-chlorophenyl)-1-(2,4-dichlorophenyl)-4-methyl-1H-pyrazol-3-yl)-1,3,4-oxadiazol-2-yl)-2-methylpropyl acetate] |  |
| 97.9 | Cc1c(-c2nnc(C(C)(C)CO)o2)nn(-c2ccc(Cl)cc2Cl)c1-c1ccc(Cl)cc1 [Example 253, 2-(5-(5-(4-chlorophenyl)-1-(2,4-dichlorophenyl)-4-methyl-1H-pyrazol-3-yl)-1,3,4-oxadiazol-2-yl)-2-methylpropan-1-ol] |  |
| 492 | Cc1c(-c2nnc(C(C)(C)COCc3ccccc3)o2)nn(-c2ccc(Cl)cc2Cl)c1-c1ccc(Cl)cc1 [Example 254, 2-(1-(Benzyloxy)-2-methylpropan-2-yl)-5-(5-(4-chlorophenyl)-1-(2,4-dichlorophenyl)-4-methyl-1H-pyrazol-3-yl)-1,3,4-oxadiazole] |  |
| 11.3 | Cc1c(-c2nnc(C3(c4cccc(Cl)c4)CC3)o2)nn(-c2ccc(Cl)cc2Cl)c1-c1ccc(Cl)cc1 [Example 257, 2-(5-(4-chlorophenyl)-1-(2,4-dichlorophenyl)-4-methyl-1H-pyrazol-3-yl)-5-(1-(3-chlorophenyl)cyclopropyl)-1,3,4-oxadiazole] |  |

| IC50 (read-out: IC50) [nM] | SMILES | IC50 (IC50(nM)) [nM] |
| --- | --- | --- |
| 8.72 | CCc1c(-c2nnc(C3(c4cccc(Cl)c4)CC3)o2)nn(-c2ccc(Cl)cc2Cl)c1-c1ccc(Cl)cc1 [Example 258, 2-(5-(4-chlorophenyl)-1-(2,4-dichlorophenyl)-4-ethyl-1H-pyrazol-3-yl)-5-(1-(3-chlorophenyl)cyclopropyl)-1,3,4-oxadiazole] |  |
|  | C=CCC1(c2nnc(-c3nn(-c4ccc(Cl)cc4Cl)c(-c4ccc(Br)cc4)c3CC)o2)CC1 [Example 259, 2-(1-allylcyclopropyl)-5-(5-(4-bromophenyl)-1-(2,4-dichlorophenyl)-4-ethyl-1H-pyrazol-3-yl)-1,3,4-oxadiazole] | 9.57 |
| 10.6 | C#Cc1c(-c2nnc(C(C)(C)C)o2)nn(-c2ccc(Cl)cc2Cl)c1-c1ccc(Cl)cc1 [Example 260, 2-tert-butyl-5-(5-(4-chlorophenyl)-1-(2,4-dichlorophenyl)-4-ethynyl-1H-pyrazol-3-yl)-1,3,4-oxadiazole] |  |
| 15.4 | CC#Cc1c(-c2nnc(C(C)(C)C)o2)nn(-c2ccc(Cl)cc2Cl)c1-c1ccc(Cl)cc1 [Example 261, 2-tert-butyl-5-(5-(4-chlorophenyl)-1-(2,4-dichlorophenyl)-4-(prop-1-ynyl)-1H-pyrazol-3-yl)-1,3,4-oxadiazole] |  |
| 15.5 | CCc1c(-c2nnc(C3(C#N)CC3)o2)nn(-c2ccc(Cl)cc2Cl)c1-c1ccc(Br)cc1 [Example 266, 1-(5-(5-(4-bromophenyl)-1-(2,4-dichlorophenyl)-4-ethyl-1H-pyrazol-3-yl)-1,3,4-oxadiazol-2-yl)cyclopropanecarbonitrile] |  |
| 95.3 | Cc1c(-c2nnc(C3(C#N)CC3)o2)nn(-c2ccc(Cl)cc2Cl)c1-c1ccc(Cl)cc1 [Example 267, 1-(5-(5-(4-chlorophenyl)-1-(2,4-dichlorophenyl)-4-methyl-1H-pyrazol-3-yl)-1,3,4-oxadiazol-2-yl)cyclopropanecarbonitrile] |  |
| 83.8 | CCc1c(-c2nnc(C3(C#N)CC3)o2)nn(-c2ccc(Cl)cc2Cl)c1-c1ccc(Cl)cc1 [Example 268, 1-(5-(5-(4-chlorophenyl)-1-(2,4-dichlorophenyl)-4-ethyl-1H-pyrazol-3-yl)-1,3,4-oxadiazol-2-yl)cyclopropanecarbonitrile] |  |
| 19.9 | Cc1c(-c2nnc(C3(c4ccccn4)CC3)o2)nn(-c2ccc(Cl)cc2Cl)c1-c1ccc(Cl)cc1 [Example 269, 2-(5-(4-chlorophenyl)-1-(2,4-dichlorophenyl)-4-methyl-1H-pyrazol-3-yl)-5-(1-(pyridin-2-yl)cyclopropyl)-1,3,4-oxadiazole] |  |
| 15 | Cc1c(-c2nnc(C3(Cc4ccccc4)CC3)o2)nn(-c2ccc(Cl)cc2Cl)c1-c1ccc(Cl)cc1 [Example 270, 2-(1-benzylcyclopropyl)-5-(5-(4-chlorophenyl)-1-(2,4-dichlorophenyl)-4-methyl-1H-pyrazol-3-yl)-1,3,4-oxadiazole] |  |
| 5.8 | CCc1c(-c2nnc(C3(c4ccc(F)cc4)CC3)o2)nn(-c2ccc(Cl)cc2Cl)c1-c1ccc(Br)cc1 [Example 272, 2-(5-(4-bromophenyl)-1-(2,4-dichlorophenyl)-4-ethyl-1H-pyrazol-3-yl)-5-(1-(4-fluorophenyl)cyclopropyl)-1,3,4-oxadiazole] |  |
|  | CCc1c(-c2nnc(C3(c4cccc(Cl)c4)CC3)o2)nn(-c2ccc(Cl)cc2Cl)c1-c1ccc(Br)cc1 [Example 273, 2-(5-(4-bromophenyl)-1-(2,4-dichlorophenyl)-4-ethyl-1H-pyrazol-3-yl)-5-(1-(3-chlorophenyl)cyclopropyl)-1,3,4-oxadiazole] | 2.32 |
| 12.3 | Cc1c(-c2nnc(C3(c4ccc(F)cc4)CC3)o2)nn(-c2ccc(Cl)cc2Cl)c1-c1ccc(Cl)cc1 [Example 274, 2-(5-(4-chlorophenyl)-1-(2,4-dichlorophenyl)-4-methyl-1H-pyrazol-3-yl)-5-(1-(4-fluorophenyl)cyclopropyl)-1,3,4-oxadiazole] |  |
| 14.7 | Cc1c(-c2nnc(C3(C)CC3)o2)nn(-c2ccc(Cl)cc2Cl)c1-c1ccc(Cl)cc1 [Example 275, 2-(5-(4-chlorophenyl)-1-(2,4-dichlorophenyl)-4-methyl-1H-pyrazol-3-yl)-5-(1-methylcyclopropyl)-1,3,4-oxadiazole] |  |
| 13 | CCc1c(-c2nnc(C3(C)CC3)o2)nn(-c2ccc(Cl)cc2Cl)c1-c1ccc(Br)cc1 [Example 276, 2-(5-(4-bromophenyl)-1-(2,4-dichlorophenyl)-4-ethyl-1H-pyrazol-3-yl)-5-(1-methylcyclopropyl)-1,3,4-oxadiazole] |  |
| 12.6 | CCC1(c2nnc(-c3nn(-c4ccc(Cl)cc4Cl)c(-c4ccc(Cl)cc4)c3C)o2)CC1 [Example 277, 2-(5-(4-chlorophenyl)-1-(2,4-dichlorophenyl)-4-methyl-1H-pyrazol-3-yl)-5-(1-ethylcyclopropyl)-1,3,4-oxadiazole] |  |
